The values below come from publication PMC5218480 (PLoS ONE, 2017).

The assay deals with MV-4-11 cells. Kind of assay: Gene expression microarray analysis (Affymetrix PrimeView) and GSEA. The assay is classed as cell-based, human. Also noted: RFU PODN (11730768_x_at) / Fold change /veh PODN (11730768_x_at) / RFU LINC00158 (11744669_a_at) / Fold change /veh LINC00158 (11744669_a_at) / RFU DUSP10 (11751237_a_at) / Fold change /veh DUSP10 (11751237_a_at) / RFU ID3 (11757404_x_at) / Fold change /veh ID3 (11757404_x_at) / RFU PLEKHG5 (11737974_s_at) / Fold change /veh PLEKHG5 (11737974_s_at) / RFU LRRC4B (11730491_at) / Fold change /veh LRRC4B (11730491_at) / RFU GIMAP4 (11747438_a_at) / Fold change /veh GIMAP4 (11747438_a_at) / RFU KRT8 (11758183_x_at) / Fold change /veh KRT8 (11758183_x_at) / RFU CNN1 (11734310_a_at) / Fold change /veh CNN1 (11734310_a_at) / RFU VPS37D (11726825_at) / Fold change /veh VPS37D (11726825_at) / RFU C10orf10 (11716522_x_at) / Fold change /veh C10orf10 (11716522_x_at) / RFU KIR2DL2 /// KIR2DL4 /// KIR2DL5A /// KIR2DL5B /// KIR2DS1 /// KIR2DS2 /// KIR2DS3 /// KIR2DS4 /// KIR3DL3 /// KIR3DL3 /// KIR3DS1 (11738374_at) / Fold change /veh KIR2DL2 /// KIR2DL4 /// KIR2DL5A /// KIR2DL5B /// KIR2DS1 /// KIR2DS2 /// KIR2DS3 /// KIR2DS4 /// KIR3DL3 /// KIR3DL3 /// KIR3DS1 (11738374_at) / RFU C1QL1 (11718748_at) / Fold change /veh C1QL1 (11718748_at) / RFU TMPRSS4 (11747572_a_at) / Fold change /veh TMPRSS4 (11747572_a_at) / RFU HAMP (11756126_x_at) / Fold change /veh HAMP (11756126_x_at) / RFU RNFT2 (11725882_a_at) / Fold change /veh RNFT2 (11725882_a_at) / RFU NR4A2 (11747474_a_at) / Fold change /veh NR4A2 (11747474_a_at) / RFU ABCC12 (11746883_a_at) / Fold change /veh ABCC12 (11746883_a_at) / RFU TMEM136 (11760407_x_at) / Fold change /veh TMEM136 (11760407_x_at) / RFU CLDN22 /// WWC2 (11732394_at) / Fold change /veh CLDN22 /// WWC2 (11732394_at) / RFU HLA-DPB1 (11760878_x_at) / Fold change /veh HLA-DPB1 (11760878_x_at) / RFU SPINT1 (11716480_a_at) / Fold change /veh SPINT1 (11716480_a_at) / RFU GAP43 (11754022_s_at) / Fold change /veh GAP43 (11754022_s_at) / RFU A4GNT (11735810_at) / Fold change /veh A4GNT (11735810_at) / RFU PRB3 (11715151_x_at) / Fold change /veh PRB3 (11715151_x_at) / RFU TUBB4B (11761932_at) / Fold change /veh TUBB4B (11761932_at) / RFU CAPN14 (11732068_a_at) / Fold change /veh CAPN14 (11732068_a_at) / RFU TMCC2 (11721928_a_at) / Fold change /veh TMCC2 (11721928_a_at) / RFU IRGQ (11745062_a_at) / Fold change /veh IRGQ (11745062_a_at) / RFU FAM174B (11720279_a_at) / Fold change /veh FAM174B (11720279_a_at) / RFU TMPRSS4 (11748680_a_at) / Fold change /veh TMPRSS4 (11748680_a_at) / RFU FAM212B (11763350_a_at) / Fold change /veh FAM212B (11763350_a_at) / RFU PLEKHG5 (11743358_a_at) / Fold change /veh PLEKHG5 (11743358_a_at) / RFU ZSCAN30 (11745921_a_at) / Fold change /veh ZSCAN30 (11745921_a_at) / RFU CMKLR1 (11741424_a_at) / Fold change /veh CMKLR1 (11741424_a_at) / RFU LOC101060620 /// MAPK8IP1 (11723275_at) / Fold change /veh LOC101060620 /// MAPK8IP1 (11723275_at) / RFU SPTSSB (11747773_x_at) / Fold change /veh SPTSSB (11747773_x_at) / RFU PRSS12 (11739890_at) / Fold change /veh PRSS12 (11739890_at) / RFU BIN1 (11741810_x_at) / Fold change /veh BIN1 (11741810_x_at) / RFU WNT11 (11732464_a_at) / Fold change /veh WNT11 (11732464_a_at) / RFU C10orf10 (11716521_a_at) / Fold change /veh C10orf10 (11716521_a_at) / RFU C5orf56 (11738089_at) / Fold change /veh C5orf56 (11738089_at) / RFU CYB561 (11721691_x_at) / Fold change /veh CYB561 (11721691_x_at) / RFU ANKRD19P (11752326_a_at) / Fold change /veh ANKRD19P (11752326_a_at) / RFU OR2T12 /// OR2T33 /// OR2T8 (11738714_s_at) / Fold change /veh OR2T12 /// OR2T33 /// OR2T8 (11738714_s_at) / RFU VCAN (11748164_a_at) / Fold change /veh VCAN (11748164_a_at) / RFU JSRP1 (11732532_at) / Fold change /veh JSRP1 (11732532_at) / RFU KRTAP10-11 (11738290_x_at) / Fold change /veh KRTAP10-11 (11738290_x_at) / RFU MYO3A (11730013_a_at) / Fold change /veh MYO3A (11730013_a_at) / RFU EBF3 (11725865_a_at) / Fold change /veh EBF3 (11725865_a_at) / RFU CAMK2N1 (11719241_x_at) / Fold change /veh CAMK2N1 (11719241_x_at) / RFU C5orf56 (11738088_a_at) / Fold change /veh C5orf56 (11738088_a_at) / RFU OLFML3 (11715873_a_at) / Fold change /veh OLFML3 (11715873_a_at) / RFU LOC100653217 /// NTM (11731650_a_at) / Fold change /veh LOC100653217 /// NTM (11731650_a_at) / RFU MAPK11 (11762145_a_at) / Fold change /veh MAPK11 (11762145_a_at) / RFU FIZ1 (11724087_x_at) / Fold change /veh FIZ1 (11724087_x_at) / RFU OASL (11726364_x_at) / Fold change /veh OASL (11726364_x_at) / RFU SOX15 (11748057_x_at) / Fold change /veh SOX15 (11748057_x_at) / RFU CD79A (11719716_a_at) / Fold change /veh CD79A (11719716_a_at) / RFU HIST1H1D (11736915_at) / Fold change /veh HIST1H1D (11736915_at) / RFU CASKIN2 (11723855_a_at) / Fold change /veh CASKIN2 (11723855_a_at) / RFU LOC730098 (11760151_x_at) / Fold change /veh LOC730098 (11760151_x_at) / RFU OR4N2 (11742367_at) / Fold change /veh OR4N2 (11742367_at) / RFU PRRT2 (11749266_a_at) / Fold change /veh PRRT2 (11749266_a_at) / RFU SNX32 (11753110_a_at) / Fold change /veh SNX32 (11753110_a_at) / RFU CDHR5 (11726645_a_at) / Fold change /veh CDHR5 (11726645_a_at) / RFU RCAN1 (11760418_a_at) / Fold change /veh RCAN1 (11760418_a_at) / RFU FAM167A (11723789_a_at) / Fold change /veh FAM167A (11723789_a_at) / RFU FAM26E (11764081_at) / Fold change /veh FAM26E (11764081_at) / RFU ISYNA1 (11749810_s_at) / Fold change /veh ISYNA1 (11749810_s_at) / RFU ACY1 (11761880_at) / Fold change /veh ACY1 (11761880_at) / RFU 11764098_at / Fold change /veh 11764098_at / RFU SAMD14 (11745864_x_at) / Fold change /veh SAMD14 (11745864_x_at) / RFU NPB (11741838_a_at) / Fold change /veh NPB (11741838_a_at) / RFU TMPRSS6 (11731388_a_at) / Fold change /veh TMPRSS6 (11731388_a_at) / RFU KRTAP10-2 (11738614_at) / Fold change /veh KRTAP10-2 (11738614_at) / RFU ARHGAP8 /// PRR5-ARHGAP8 (11727945_x_at) / Fold change /veh ARHGAP8 /// PRR5-ARHGAP8 (11727945_x_at) / RFU KRTAP5-7 /// NADSYN1 (11734609_at) / Fold change /veh KRTAP5-7 /// NADSYN1 (11734609_at) / RFU RASL12 (11751679_a_at) / Fold change /veh RASL12 (11751679_a_at) / RFU CDKN2B (11736163_a_at) / Fold change /veh CDKN2B (11736163_a_at) / RFU PRF1 (11729649_at) / Fold change /veh PRF1 (11729649_at) / RFU, ZNF638 /// ZNF638-IT1 / Fold change vs veh, ZNF638 /// ZNF638-IT1 / RFU, PANK3 / Fold change vs veh, PANK3 / RFU, SH3YL1 / Fold change vs veh, SH3YL1 / RFU, ZEB2 / Fold change vs veh, ZEB2 / RFU, NRIP1 / Fold change vs veh, NRIP1 / RFU, PTTG1IP / Fold change vs veh, PTTG1IP / RFU, CAPN2 / Fold change vs veh, CAPN2 / RFU, MED14 / Fold change vs veh, MED14 / RFU, SNORA58 / Fold change vs veh, SNORA58 / RFU, C1orf63 / Fold change vs veh, C1orf63 / RFU, LRRFIP1 / Fold change vs veh, LRRFIP1 / RFU, NDUFAF7 / Fold change vs veh, NDUFAF7 / RFU, SLC12A2 / Fold change vs veh, SLC12A2 / RFU, IBTK / Fold change vs veh, IBTK / RFU, ESF1 / Fold change vs veh, ESF1 / Fold change vs veh, TMEM50B / RFU, TAOK1 / Fold change vs veh, TAOK1 / RFU, ACBD3 / Fold change vs veh, ACBD3 / RFU, TMA16 / Fold change vs veh, TMA16 / RFU, RWDD3 / Fold change vs veh, RWDD3 / RFU, BCAT1 / Fold change vs veh, BCAT1 / RFU, EDEM3 / Fold change vs veh, EDEM3 / RFU, TMEM33 / Fold change vs veh, TMEM33 / RFU, WDR75 / Fold change vs veh, WDR75 / RFU, AHCTF1 / Fold change vs veh, AHCTF1 / RFU, TFRC / Fold change vs veh, TFRC / RFU, ZDHHC17 / Fold change vs veh, ZDHHC17 / RFU, NOM1 / Fold change vs veh, NOM1 / RFU, ARL8B / Fold change vs veh, ARL8B / RFU, ZBTB11 / Fold change vs veh, ZBTB11 / RFU, TAMM41 / Fold change vs veh, TAMM41 / RFU, KIAA1704 /// LOC100996395 / Fold change vs veh, KIAA1704 /// LOC100996395 / RFU, ING1 / Fold change vs veh, ING1 / RFU, TRMT61B / Fold change vs veh, TRMT61B / RFU, FUBP3 / Fold change vs veh, FUBP3 / RFU, TP53 / Fold change vs veh, TP53 / RFU, TNKS2 / Fold change vs veh, TNKS2 / RFU, ZFP14 / Fold change vs veh, ZFP14 / RFU, ACTR2 / Fold change vs veh, ACTR2 / RFU, PPP3R1 / Fold change vs veh, PPP3R1 / RFU, PIK3R1 / Fold change vs veh, PIK3R1 / RFU, HNRNPA1 / Fold change vs veh, HNRNPA1 / RFU, RNF170 / Fold change vs veh, RNF170 / RFU, ZNF28 / Fold change vs veh, ZNF28 / RFU, RNGTT / Fold change vs veh, RNGTT / RFU, OGT / Fold change vs veh, OGT / RFU, BRD1 / Fold change vs veh, BRD1 / RFU, MARS / Fold change vs veh, MARS / RFU, ZNF655 / Fold change vs veh, ZNF655 / RFU, FAHD1 / Fold change vs veh, FAHD1 / RFU, BDP1 / Fold change vs veh, BDP1 / RFU, LRRCC1 / Fold change vs veh, LRRCC1 / RFU, ARID1A / Fold change vs veh, ARID1A / RFU, ZNF146 / Fold change vs veh, ZNF146 / RFU, ZNF330 / Fold change vs veh, ZNF330 / RFU, GPN3 / Fold change vs veh, GPN3 / RFU, C9orf123 / Fold change vs veh, C9orf123 / RFU, N4BP2L2 / Fold change vs veh, N4BP2L2 / RFU, ARFIP1 / Fold change vs veh, ARFIP1 / RFU, FAM179B / Fold change vs veh, FAM179B / RFU, BCL10 / Fold change vs veh, BCL10 / RFU, UHRF1BP1L / Fold change vs veh, UHRF1BP1L / RFU, BET1 / Fold change vs veh, BET1 / RFU, CNOT2 / Fold change vs veh, CNOT2 / RFU, ZNF268 / Fold change vs veh, ZNF268 / Fold change vs veh, ZNF507 / RFU, DGCR2 / Fold change vs veh, DGCR2 / RFU, WDSUB1 / Fold change vs veh, WDSUB1 / Fold change vs veh, HSP90B1 /// MIR3652 / RFU, ADSS / Fold change vs veh, ADSS / RFU, GK / Fold change vs veh, GK / RFU, ZNF148 / Fold change vs veh, ZNF148 / RFU, TAF9 / Fold change vs veh, TAF9 / RFU, SLC1A5 / Fold change vs veh, SLC1A5 / RFU, SLMO2 / Fold change vs veh, SLMO2 / RFU, ABCC4 / Fold change vs veh, ABCC4 / RFU, LOC101060439 /// RAP1B / Fold change vs veh, LOC101060439 /// RAP1B / RFU, RFX7 / Fold change vs veh, RFX7 / RFU, GTPBP10 / Fold change vs veh, GTPBP10 / RFU, CNEP1R1 / Fold change vs veh, CNEP1R1 / RFU, BIVM-ERCC5 /// ERCC5 / Fold change vs veh, BIVM-ERCC5 /// ERCC5 / RFU, ILF3 / Fold change vs veh, ILF3 / RFU 11762660_at / Fold change /veh 11762660_at / RFU VCAN (11757783_s_at) / Fold change /veh VCAN (11757783_s_at) / RFU DDX43 (11728927_at) / Fold change /veh DDX43 (11728927_at) / RFU KRT8 (11758188_x_at) / Fold change /veh KRT8 (11758188_x_at) / RFU NKD1 (11759106_at) / Fold change /veh NKD1 (11759106_at) / RFU SRD5A1 (11742802_a_at) / Fold change /veh SRD5A1 (11742802_a_at) / RFU TPSAB1 /// TPSB2 (11721975_s_at) / Fold change /veh TPSAB1 /// TPSB2 (11721975_s_at) / RFU GSTM3 (11746129_a_at) / Fold change /veh GSTM3 (11746129_a_at) / RFU IL23R (11737362_x_at) / Fold change /veh IL23R (11737362_x_at) / RFU TMEM51 (11727254_a_at) / Fold change /veh TMEM51 (11727254_a_at) / RFU PIWIL2 (11732686_x_at) / Fold change /veh PIWIL2 (11732686_x_at) / RFU ORM1 (11744905_x_at) / Fold change /veh ORM1 (11744905_x_at) / RFU CCDC152 (11743942_at) / Fold change /veh CCDC152 (11743942_at) / RFU ECM1 (11717891_a_at) / Fold change /veh ECM1 (11717891_a_at) / RFU IL23R (11748794_a_at) / Fold change /veh IL23R (11748794_a_at) / RFU TNFAIP8L3 (11732012_x_at) / Fold change /veh TNFAIP8L3 (11732012_x_at) / RFU MBOAT4 (11741988_at) / Fold change /veh MBOAT4 (11741988_at) / RFU 11764193_at / Fold change /veh 11764193_at / RFU TMEM53 (11763286_at) / Fold change /veh TMEM53 (11763286_at) / RFU MAGEB2 (11727129_at) / Fold change /veh MAGEB2 (11727129_at) / RFU TMEM200A (11744735_a_at) / Fold change /veh TMEM200A (11744735_a_at) / RFU CCDC152 (11751479_a_at) / Fold change /veh CCDC152 (11751479_a_at) / RFU FAM211A (11726209_a_at) / Fold change /veh FAM211A (11726209_a_at) / RFU RGS16 (11746705_a_at) / Fold change /veh RGS16 (11746705_a_at) / RFU VCAN (11755009_s_at) / Fold change /veh VCAN (11755009_s_at) / RFU RHOB (11743442_s_at) / Fold change /veh RHOB (11743442_s_at) / RFU RGS16 (11720943_a_at) / Fold change /veh RGS16 (11720943_a_at) / RFU RGS16 (11720944_at) / Fold change /veh RGS16 (11720944_at) / RFU, VPS4B / Fold change vs veh, VPS4B / RFU, CREB1 / Fold change vs veh, CREB1 / RFU, DNAJC13 / Fold change vs veh, DNAJC13 / RFU, GNAQ / Fold change vs veh, GNAQ / RFU, CDK5R1 / Fold change vs veh, CDK5R1 / RFU, ZRANB3 / Fold change vs veh, ZRANB3 / RFU, CUL4A / Fold change vs veh, CUL4A / RFU, CCNY / Fold change vs veh, CCNY / RFU, UFL1 / Fold change vs veh, UFL1 / RFU, COG3 / Fold change vs veh, COG3 / RFU, DIAPH2 / Fold change vs veh, DIAPH2 / RFU, SKA2 / Fold change vs veh, SKA2 / RFU, AFF3 / Fold change vs veh, AFF3 / RFU, LMF1 / Fold change vs veh, LMF1 / RFU, IPO11 / Fold change vs veh, IPO11 / RFU, DFFB / Fold change vs veh, DFFB / RFU, FOXP1 / Fold change vs veh, FOXP1 / RFU, CARD8 / Fold change vs veh, CARD8 / RFU, STRN3 / Fold change vs veh, STRN3 / RFU, ADK / Fold change vs veh, ADK / RFU, RASSF2 / Fold change vs veh, RASSF2 / RFU, WIPF1 / Fold change vs veh, WIPF1 / RFU, LARP1B / Fold change vs veh, LARP1B / RFU, RASA1 / Fold change vs veh, RASA1 / RFU, RB1 / Fold change vs veh, RB1 / RFU, PPFIA1 / Fold change vs veh, PPFIA1 / RFU, MAT2A / Fold change vs veh, MAT2A / RFU, CCT5 / Fold change vs veh, CCT5 / RFU, WDR92 / Fold change vs veh, WDR92 / RFU, CUX1 / Fold change vs veh, CUX1 / RFU, TTC7A / Fold change vs veh, TTC7A / RFU, TMEM135 / Fold change vs veh, TMEM135 / RFU, DEPTOR / Fold change vs veh, DEPTOR / RFU, CPM / Fold change vs veh, CPM / RFU, DNAJB6 / Fold change vs veh, DNAJB6 / RFU, CACNA2D3 / Fold change vs veh, CACNA2D3 / RFU, DTX4 / Fold change vs veh, DTX4 / RFU, TFCP2 / Fold change vs veh, TFCP2 / RFU, GMCL1 /// GMCL1P1 / Fold change vs veh, GMCL1 /// GMCL1P1 / RFU, AEBP2 / Fold change vs veh, AEBP2 / RFU, SNHG1 /// SNORD22 /// SNORD25 /// SNORD26 /// SNORD27 /// SNORD28 /// SNORD29 /// SNORD31 / Fold change vs veh, SNHG1 /// SNORD22 /// SNORD25 /// SNORD26 /// SNORD27 /// SNORD28 /// SNORD29 /// SNORD31 / Fold change (Aza/veh), C12orf56 (ProbeSet 11735607_a_at) / Fold change (ACY-1035/veh), C12orf56 (ProbeSet 11735607_a_at) / Fold change (Aza/veh), FGFR1OP (ProbeSet 11751329_s_at) / Fold change (ACY-1035/veh), FGFR1OP (ProbeSet 11751329_s_at) / Fold change (Aza/veh), VPS36 (ProbeSet 11739960_a_at) / Fold change (ACY-1035/veh), VPS36 (ProbeSet 11739960_a_at) / RFU SYPL1 (11715823_x_at) / Fold change /veh SYPL1 (11715823_x_at) / RFU IGFBP7 (11715501_s_at) / Fold change /veh IGFBP7 (11715501_s_at) / RFU REEP3 (11722064_at) / Fold change /veh REEP3 (11722064_at) / RFU IGLL1 (11728026_x_at) / Fold change /veh IGLL1 (11728026_x_at): dose or concentration left out as unconfirmed. The following applies: ProbeSet 11754362_a_at; LIST D.

In the case of `Nc1ncn([C@@H]2O[C@H](CO)[C@@H](O)[C@H]2O)c(=O)n1` [azacitidine], the “RFU, TTC7A” value was 124.13 RFU.
